How the values were obtained:
PsA PAO1 biofilm = experiment: PAO1 biofilm on coupons, LIVE/DEAD stain, confocal microscopy; type: cell-based, Pseudomonas aeruginosa
Method: FIG. 2A: ZnPor (alone) stained biofilm. […] Length of size bar: […].
FIGS. 15A-15B show the biofilms of PAO1 treated with various concentrations of ZnPor (II) and in combination with PEV2 phage. Biofilms of strain PAO1 were grown on coupons cut from polyethylene in MSG media for approximately 16-18 hours. Overnight media was replaced with fresh PBS and were treated with (FIG. 15B) ZnPor (II) only at concentrations of 5, 10 or 25 μg/mL, and incubated for 2 h, (FIG. 15A) phage PEV2 only (MOI=10:1) for 4 h, or (FIG. 15B) ZnPor (II) treatment for 2 h followed by the addition of phage PEV2 (MOI of 10:1) and incubated for an additional 4 h. Coupons were gently washed in distilled water and were treated with LIVE/DEAD™ stain. All coupons were imaged using confocal laser scanning […] microscopy (CLSM) at 60×. Green=LIVE Red=DEAD.
PAO1 was grown overnight in MSG at 37 C with shaking. CDC Bioreactors with PE coupons were inoculated to a final OD of 0.15 in cation adjusted Mueller Hinton broth. Biofilms were grown 16-18 h at 37 degrees C. with 50 rpm stirring. Control biofilm is shown (FIG. 20A). All overnight media in bioreactors were replaced with fresh PBS. Bioreactors treated with ZnPor (II) at 4 μg/mL were left to incubate for 2 hours without stirring. Bioreactors treated with either whole PEV2 phage or the purified DNA genome of PEV2 were incubated for 24 hours without stirring. […]

SA biofilm = SA biofilm model with bioluminescence reporter; type: cell-based, Staphylococcus aureus; conditions: escalating doses of ZnPor vs PBS
Method: Representative of one experiment.
Biofilm formation was an important defense mechanism utilized by bacteria and was associated with bacterial phenotypes that predict worse clinical outcomes in CF. A biofilm model was deployed using an SA strain with genetically embedded bioluminescence reporter to gauge efficacy of ZnPor against SA biofilm. Plastic plates were coated with bioluminescent SA and treated with escalating doses of ZnPor or PBS. Bioluminescence was measured via spectrophotometer.

A549/U937 = type: cell-based
Method: FIGS. 22A-22B show a lung co-culture (A549/U937) model after 24 hour exposure to ZnPor displaying no toxicity (FIG. 22A) and U937 stained and imaged after 24 hours of dark exposure to 50 μM ZnPor (FIG. 22B).

[1] = system: Coronavirus isolated from a cold (ATCC); experiment: Anti-viral activity against a Coronavirus; type: cell-based; conditions: without light activation
Text: ZnPor (II) can interact with many macromolecules and may bind to important components of a virus, rendering it unable to infect cells. […] This is due to the high levels of ROSs (Reactive Oxygen Species, e.g., superoxide) produced by activation of the porphyrin and which destroy a wide range of macromolecules (proteins, lipids etc.). […] ZnPor can bind to proteins, which may have accounted for how ZnPor (II) acted, in that it bound to the viral proteins such as the spike protein of Coronaviruses. If the Spike proteins bound to ZnPor (II) then the virus couldn't attach to the host cell binding receptor for the spike proteins. There are relatively few antiviral agents. While there are a number of porphyrins that can inactivate viruses using light activation, ZnPor (II) porphyrin has antiviral activity without light activation.

Listeria monocytogenes [2] = experiment: Killing of Listeria inside macrophages; type: cell-based; conditions: macrophages treated with ZnPor (II) vs control
Method: A growing number of bacteria are being discovered as having the ability to enter and grow within human cells. The model bacterium used to test this was: Listeria monocytogenes. This bacterium is well known for its ability to survive inside human cells and using actin tails (sourced from the host cell) to propel themselves out of one cell and into another. The L. monocytogenes bacteria were incubated with macrophages. […] Then macrophages were cracked open and plated on antibiotic plates to get a viable count of the number of cells taken up (control) and compared to macrophages treated with ZnPor (II).

[3] = system: Pseudomonas aeruginosa (GN); experiment: Killing activity against a range of bacteria; type: cell-based
Listeria monocytogenes [4] = experiment: Killing activity against a range of bacteria; type: cell-based
[5] = system: Mycobacterium tuberculosis; experiment: Killing of acid fast bacterium; type: cell-based
Text: ZnPor (II) is the only porphyrin that kills Gram-positive and Gram-negative bacteria without photoactivation. […] Additionally, ZnPor (II) inactivates the bacteriophage PEV2, a well-studied bacteriophage of Pseudomonas aeruginosa. PEV2 is currently being used in phage therapy in Europe. […] While ZnPor (II) can inactivate phage, at lower concentrations it can act synergistically with bacteriophage PEV2 or the purified genome of PEV2 in remediation of biofilms of PsA. This is referred to as PAS Phage Antibiotic Synergy (PAS) and is of great interest and intense study; as a means to overcome several known limitations of phage-only “Phage Therapy”.

PsA = experiment: Activity of extant antibiotics together with ZnPor (II)
ex-vivo grown lung cells = experiment: Toxicity to ex-vivo grown lung cells versus effective concentration

Substance: meso-5,10,15-tris(N-methyl-4-pyridyl)-20-(pentafluorophenyl)porphyrinatozinc(II), tris-p-toluene sulfonate [ZnPor]
- biofilm clearing (PsA PAO1 biofilm; 25 μg/mL ZnPor alone, 2 h): almost complete clearing of the biofilm
- LIVE/DEAD state of biofilm (PsA PAO1 biofilm; pre-treated with ZnPor (II) 4 μg/mL before adding PEV2 whole phage): only dead cells
- biofilm formation by bioluminescence (SA biofilm): significantly less biofilm formation
- toxicity (A549/U937): no toxicity
- viral infection [1]: prevented viral infection
- number of Listeria cells in the macrophages (Listeria monocytogenes [2]): a log reduction
- killing [3]: effective at killing
- killing (Listeria monocytogenes [4]): effective at killing
- killing [5]: effective at killing
- non-toxic level relative to the MBC for S. aureus MRSA strain (human lung or skin cells): over 100 times
- toxicity (human lung or skin cells): no toxicity
- effect on extant antibiotics ineffective against bacterial biofilms, e.g., Tobramycin (PsA): enables activity
- effective concentration, fold lower than that causing any toxicity (ex-vivo grown lung cells): up to 100 ×

From patent US11975009B2, “Use of zinc porphyrin as an antimicrobial” (ZNABLE LLC, priority 2022, dated 2024)
